Test results taken from patent US20090053582A1, “METHOD OF COATING BILIRUBIN OXIDASE” (SONY CORPORATION, priority 2007, published 2009).

Tests used:
[1] = test system: bilirubin oxidase (BOD), coated BOD 1 (Reference Example)
Description: (§1) The solution was homogeneously added to the above acryloylated BOD solution, and the resulting solution was allowed to react for 60 minutes.
(§2) The Michaelis constants (KM) and the reaction rate constants (kcat) of coated BOD 1, coated BOD 2, and free BOD 1 prepared above were measured under the conditions shown in Table 1 below. […] The amount of protein of each BOD sample was determined by bicinchoninic acid (BCA) colorimetric protein assay from a calibration curve of bovine serum albumin (BSA) used as a standard protein.

[2] = test system: bilirubin oxidase (BOD), coated BOD 2 (Reference Example)
Description: as §1, §2

[3] = test system: bilirubin oxidase (BOD), free BOD 1 (not coated, stored at 4° C.); settings: oxygen saturation
Description: As a control, BOD on which coating was not performed and which was stored at 4° C. for the same period of time as that is necessary for the process of preparing coated BOD 2 (hereinafter referred to as “free BOD 1”) was used.
as §2

[4] = test system: bilirubin oxidase (BOD), coated BOD 3 (Example 1, coated at 4° C.)
Description: (§3) First, 40 mg of BOD and 1 mg of ethylenediaminetetraacetic acid (EDTA) used as a stabilizer were dissolved in 3.8 mL of a 100 mM boric acid solution (pH 9.3). Subsequently, 6.0 mg of N-acryloxysuccinimide was dissolved in 0.2 mL of DMSO, and the solution was then gradually added to the boric acid buffer. The resulting solution was allowed to react at 4° C. for 10 hours. Subsequently, the resulting acryloylated BOD in which acryloyl groups were introduced was purified using a Sephadex G25 column at 4° C.
(§4) Subsequently, at 4° C., a mixture prepared by mixing acrylamide and N,N′-methylenebisacrylamide in a molar ratio of 10:1 was dissolved in 0.5 mL of deionized water free of oxygen. The solution was homogeneously added to the above acryloylated BOD solution, and the resulting solution was allowed to react for 60 minutes. The reaction was further performed in the presence of nitrogen at 4° C. for 60 minutes. Finally, the coated BOD (hereinafter referred to as “coated BOD 3”) was purified using a Sephadex G75 column.
(§5) The Michaelis constants (KM) and the reaction rate constants (kcat) of coated BOD 3, coated BOD 4, free BOD 2, and free BOD 3 prepared above were measured under the conditions shown in Table 4. […] The amount of protein of each BOD sample was determined by BCA colorimetric protein assay from a calibration curve of BSA used as a standard protein.

[5] = test system: bilirubin oxidase (BOD), coated BOD 4 (Example 1, coated at 4° C.)
Description: as §3, §4, §5

[6] = test system: bilirubin oxidase (BOD), free BOD 2 (not coated, stored at 25° C.); settings: ABTS, pH 7.0, 25° C., oxygen saturation
Description: (§6) As controls, BOD on which coating was not performed and which was stored at 25° C. for the same period of time as that is necessary for the process of preparing coated BOD 4 (hereinafter referred to as “free BOD 2”), and BOD on which coating was not performed and which was stored at 4° C. for the same period of time as that is necessary for the process of preparing coated BOD 4 (hereinafter referred to as “free BOD 3”) were used.
as §5

[7] = test system: bilirubin oxidase (BOD), free BOD 3 (not coated, stored at 4° C.); settings: oxygen saturation
Description: as §6, §5

CCn1c(=NN=c2sc3cc(S(=O)(=O)O)ccc3n2CC)sc2cc(S(=O)(=O)O)ccc21.N.N [ABTS, 2,2′-Azino-bis(3-ethylbenzothiazoline-6-sulfonic acid) diammonium salt]
kcat ([1]; coated BOD 1, ABTS, pH 7.0, 25° C., oxygen saturation): 10.2 s⁻¹ | Michaelis constant (KM) compared with free BOD 1 ([1]; coated BOD 1 vs free BOD 1): no significant difference | Km ([1]; read-out: KM,ABTS, coated BOD 1, 2.05 nM, ABTS 0.05 to 10 mM, pH 7.0 sodium phosphate, 25° C., oxygen saturation, 730 nm): 383 µM | kcat ([2]; coated BOD 2, ABTS, pH 7.0, 25° C., oxygen saturation): 1.92 s⁻¹ | Michaelis constant (KM) compared with free BOD 1 ([2]; coated BOD 2 vs free BOD 1): no significant difference | Km ([2]; read-out: KM,ABTS, coated BOD 2, 19.7 nM, ABTS 0.05 to 10 mM, pH 7.0 sodium phosphate, 25° C., oxygen saturation, 730 nm): 405 µM | kcat ([3]; free BOD 1, ABTS, pH 7.0, 25° C.): 234 s⁻¹ | Km ([3]; read-out: KM,ABTS, free BOD 1, 712 pM, ABTS 0.05 to 10 mM, pH 7.0 sodium phosphate, 25° C., 730 nm): 307 µM | kcat ([4]; coated BOD 3, ABTS, pH 7.0, 25° C., oxygen saturation): 52.5 s⁻¹ | Michaelis constant (KM) compared with free BOD 2 and free BOD 3 ([4]; coated BOD 3 vs free BOD 2 and free BOD 3): about twice | Km ([4]; read-out: KM,ABTS, coated BOD 3, 1.09 nM, ABTS 0.05 to 7 mM, pH 7.0 sodium phosphate, 25° C., oxygen saturation, 730 nm): 570 µM | kcat ([5]; coated BOD 4, ABTS, pH 7.0, 25° C., oxygen saturation): 52.7 s⁻¹ | Michaelis constant (KM) compared with free BOD 2 and free BOD 3 ([5]; coated BOD 4 vs free BOD 2 and free BOD 3): about twice | Km ([5]; read-out: KM,ABTS, coated BOD 4, 3.30 nM, ABTS 0.05 to 7 mM, pH 7.0 sodium phosphate, 25° C., oxygen saturation, 730 nm): 670 µM | kcat [6]: 158 s⁻¹ | kcat ([7]; free BOD 3, ABTS, pH 7.0, 25° C.): 216 s⁻¹ | Km ([7]; read-out: KM,ABTS, free BOD 3, 0.629 nM, ABTS 0.05 to 7 mM, pH 7.0 sodium phosphate, 25° C., 730 nm): 358 µM
